Data as given in patent publication US6358885B1, “Substituted phenylheterocyclic herbicides” (Mississippi State University, priority 1992, dated 2002).

Tests used:
Assay in all cases: Test B preemergence/postemergence greenhouse plant response rating 0 to 10
wheat = format: in vivo, Triticum aestivum; details: for Plant response rating, Wheat: 0 to 10 scale; for Plant response rating (0 to 10 scale), Wheat: Rate 100 g/ha
Outline: (§1)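 Postemergence treatment of plants two to eighteen cm tall ran alongside preemergence treatment of planted seed, each using compound in a non-phytotoxic solvent.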

lambsquarters = format: in vivo, Chenopodium album; details: for Plant response rating, Lambsquarter: 0 to 10 scale; for Plant response rating (0 to 10 scale), Lambsquarter: Rate 100 g/ha
Outline: as §1

soybean = format: in vivo, Glycine max; details: for Plant response rating, Soybean: 0 to 10 scale; for Plant response rating (0 to 10 scale), Soybean: Rate 100 g/ha
Outline: as §1

wild buckwheat = format: in vivo, Polygonum convolvulus; details: for Plant response rating, Wild buckwheat: 0 to 10 scale; for Plant response rating (0 to 10 scale), Wild buckwheat: Rate 100 g/ha
Outline: as §1

wild oat = format: in vivo, Avena fatua; details: for Plant response rating, Wild oat: 0 to 10 scale; for Plant response rating (0 to 10 scale), Wild oat: Rate 100 g/ha
Outline: as §1

rice = format: in vivo, Oryza sativa; details: for Plant response rating, Rice: 0 to 10 scale; for Plant response rating (0 to 10 scale), Rice: Rate 100 g/ha
Outline: as §1

Clc1ccc(-c2nc3n(c2Cl)CCC=C3)c(Cl)c1 [Compound 1]
Plant response rating, Wheat (wheat; POSTEMERGENCE, Rate 50 g/ha): 1 | Plant response rating, Wheat (wheat; POSTEMERGENCE, Rate 200 g/ha): 2 | Plant response rating, Wheat (wheat; PREEMERGENCE, Rate 50 g/ha): 0 | Plant response rating, Wheat (wheat; Rate 200 g/ha, PREEMERGENCE): 0 | Plant response rating, Lambsquarter (lambsquarters; POSTEMERGENCE, Rate 50 g/ha): 4 | Plant response rating, Lambsquarter (lambsquarters; POSTEMERGENCE, Rate 200 g/ha): 7 | Plant response rating, Lambsquarter (lambsquarters; PREEMERGENCE, Rate 50 g/ha): 0 | Plant response rating, Lambsquarter (lambsquarters; Rate 200 g/ha, PREEMERGENCE): 0 | Plant response rating, Soybean (soybean; POSTEMERGENCE, Rate 50 g/ha): 4 | Plant response rating, Soybean (soybean; POSTEMERGENCE, Rate 200 g/ha): 4 | Plant response rating, Soybean (soybean; PREEMERGENCE, Rate 50 g/ha): 0 | Plant response rating, Soybean (soybean; Rate 200 g/ha, PREEMERGENCE): 0 | Plant response rating, Wild buckwheat (wild buckwheat; POSTEMERGENCE, Rate 50 g/ha): 5 | Plant response rating, Wild buckwheat (wild buckwheat; POSTEMERGENCE, Rate 200 g/ha): 9 | Plant response rating, Wild buckwheat (wild buckwheat; Rate 200 g/ha, PREEMERGENCE): 0 | Plant response rating, Wild oat (wild oat; POSTEMERGENCE, Rate 50 g/ha): 2 | Plant response rating, Wild oat (wild oat; POSTEMERGENCE, Rate 200 g/ha): 2 | Plant response rating, Wild oat (wild oat; Rate 200 g/ha, PREEMERGENCE): 0 | Plant response rating, Rice (rice; POSTEMERGENCE, Rate 50 g/ha): 4 | Plant response rating, Rice (rice; POSTEMERGENCE, Rate 200 g/ha): 3 | Plant response rating, Rice (rice; PREEMERGENCE, Rate 50 g/ha): 0 | Plant response rating, Rice (rice; Rate 200 g/ha, PREEMERGENCE): 0

Clc1ccc(-c2nc3n(c2Br)CCCC3)c(Cl)c1 [Compound 2]
Plant response rating, Wheat (wheat; POSTEMERGENCE, Rate 50 g/ha): 1 | Plant response rating (0 to 10 scale), Wheat (wheat; POSTEMERGENCE): 2 | Plant response rating, Wheat (wheat; POSTEMERGENCE, Rate 200 g/ha): 2 | Plant response rating, Wheat (wheat; POSTEMERGENCE, Rate 400 g/ha): 2 | Plant response rating, Wheat (wheat; PREEMERGENCE, Rate 50 g/ha): 0 | Plant response rating (0 to 10 scale), Wheat (wheat; PREEMERGENCE): 0 | Plant response rating, Wheat (wheat; PREEMERGENCE, Rate 400 g/ha): 0 | Plant response rating, Wheat (wheat; Rate 200 g/ha, PREEMERGENCE): 0 | Plant response rating, Lambsquarter (lambsquarters; POSTEMERGENCE, Rate 50 g/ha): 9 | Plant response rating (0 to 10 scale), Lambsquarter (lambsquarters; POSTEMERGENCE): 9 | Plant response rating, Lambsquarter (lambsquarters; POSTEMERGENCE, Rate 200 g/ha): 9 | Plant response rating, Lambsquarter (lambsquarters; POSTEMERGENCE, Rate 400 g/ha): 9 | Plant response rating, Lambsquarter (lambsquarters; PREEMERGENCE, Rate 50 g/ha): 0 | Plant response rating (0 to 10 scale), Lambsquarter (lambsquarters; PREEMERGENCE): 0 | Plant response rating, Lambsquarter (lambsquarters; Rate 200 g/ha, PREEMERGENCE): 6 | Plant response rating, Soybean (soybean; POSTEMERGENCE, Rate 50 g/ha): 6 | Plant response rating (0 to 10 scale), Soybean (soybean; POSTEMERGENCE): 6 | Plant response rating, Soybean (soybean; POSTEMERGENCE, Rate 200 g/ha): 6 | Plant response rating, Soybean (soybean; POSTEMERGENCE, Rate 400 g/ha): 7 | Plant response rating, Soybean (soybean; PREEMERGENCE, Rate 50 g/ha): 0 | Plant response rating (0 to 10 scale), Soybean (soybean; PREEMERGENCE): 0 | Plant response rating, Soybean (soybean; PREEMERGENCE, Rate 400 g/ha): 0 | Plant response rating, Soybean (soybean; Rate 200 g/ha, PREEMERGENCE): 0 | Plant response rating, Wild buckwheat (wild buckwheat; POSTEMERGENCE, Rate 50 g/ha): 10 | Plant response rating (0 to 10 scale), Wild buckwheat (wild buckwheat; POSTEMERGENCE): 10 | Plant response rating, Wild buckwheat (wild buckwheat; POSTEMERGENCE, Rate 200 g/ha): 10 | Plant response rating, Wild buckwheat (wild buckwheat; POSTEMERGENCE, Rate 400 g/ha): 10 | Plant response rating, Wild buckwheat (wild buckwheat; PREEMERGENCE, Rate 50 g/ha): 0 | Plant response rating (0 to 10 scale), Wild buckwheat (wild buckwheat; PREEMERGENCE): 0 | Plant response rating, Wild buckwheat (wild buckwheat; PREEMERGENCE, Rate 400 g/ha): 0 | Plant response rating, Wild buckwheat (wild buckwheat; Rate 200 g/ha, PREEMERGENCE): 0 | Plant response rating, Wild oat (wild oat; POSTEMERGENCE, Rate 50 g/ha): 2 | Plant response rating (0 to 10 scale), Wild oat (wild oat; POSTEMERGENCE): 2 | Plant response rating, Wild oat (wild oat; POSTEMERGENCE, Rate 200 g/ha): 3 | Plant response rating, Wild oat (wild oat; POSTEMERGENCE, Rate 400 g/ha): 3 | Plant response rating (0 to 10 scale), Wild oat (wild oat; PREEMERGENCE): 0 | Plant response rating, Wild oat (wild oat; PREEMERGENCE, Rate 400 g/ha): 0 | Plant response rating, Wild oat (wild oat; Rate 200 g/ha, PREEMERGENCE): 0 | Plant response rating, Rice (rice; POSTEMERGENCE, Rate 50 g/ha): 3 | Plant response rating (0 to 10 scale), Rice (rice; POSTEMERGENCE): 4 | Plant response rating, Rice (rice; POSTEMERGENCE, Rate 200 g/ha): 4 | Plant response rating, Rice (rice; POSTEMERGENCE, Rate 400 g/ha): 4 | Plant response rating, Rice (rice; PREEMERGENCE, Rate 50 g/ha): 0 | Plant response rating (0 to 10 scale), Rice (rice; PREEMERGENCE): 0 | Plant response rating, Rice (rice; PREEMERGENCE, Rate 400 g/ha): 0 | Plant response rating, Rice (rice; Rate 200 g/ha, PREEMERGENCE): 0
